Data: patent US5846720A, “Methods of determining chemicals that modulate expression of genes associated with cardiovascular disease” (Oncogene Science, Inc., priority 1996, dated 1998)
“Also recorded” adds a separate entry of the source. Read-outs that look alike come from different tables or passages of the source.

How the values were obtained:
[1] = system: G-CSF mRNA; assay: Northern blot of endogenous G-CSF mRNA; assay type: cell-based, human; conditions: U5637 cells, relative to DMSO
Method: (§1) Total cellular RNA was isolated from cells following incubation with chemicals as described above and electrophoresed in a 1% Agarose Formaldehyde gel. The RNA was transferred to Duralon-UV nylon filters (Stratagene, La Jolla, Calif.) using the manufacturer's recommended protocol. The filters were prehybridized for 4 hours (prehybridizing solution=5× SSC, 50 mM sodium pyrophosphate, 10× Denhardt's solution, 10% dextran sulfate, 7% SDS and 250 μg/ml denatured ssDNA) and then hybridized in the same solution for 16 hours at 65° C. in the presence of specific probes. The G-CSF probe was a 0.6 kb AflII to Xhol fragment which contained most of exon 5 of the human G-CSF gene. The β-actin (Oncor, Gaithersburg, Md.) probe was used as a control probe to normalize for the total amount of RNA. The probes were labeled with alpha-32P dCTP using a random primed DNA labeling kit (Amersham, Arlington, Ill.). Following hybridization, filters were washed three times at room temperature with 1× SSC, 0.13% SDS and three times at 65° C. with 0.2× SSC, 0.1% SDS. Filters were first probed with the G-CSF specific probe and then reprobed with β-actin-probe. Exposure to x-ray film was performed overnight. Bands were excised and counted in a liquid scintillation counter (LKB, Gaithersburg, Md.), and counts obtained with the G-CSF specific probe were normalized relative to the counts obtained with the β-Actin specific probe.
Also shown are the effects of the solvent, DMSO, used to dissolve the chemicals and a proteinaceous positive regulator, interferon-gamma.

[2] = system: G-CSF promoter; assay: G-CSF promoter/luciferase reporter assay (high-throughput screen I), G21 cells; conditions: for activation of the G-CSF promoter (dose response): G21 cells; for EC50: read-out: ED50 (concentration of chemical resulting in 50% maximal stimulation), G-CSF reporter cell line G21, range over the three chemicals; for G-CSF promoter induction: G21, 7 hours, serum-free
[3] = system: beta-actin mRNA; assay: Northern blot of actin mRNA (control); assay type: cell-based, human; conditions: U5637 cells
Method: as §1, with “β-actin-probe. […]” for “β-actin-probe. Exposure to x-ray film was performed overnight.”, “probe. […]” for “probe.”

[4] = system: G-CSF mRNA; assay: S1 nuclease protection, G-CSF mRNA; assay type: cell-based, human; conditions: for amount of G-CSF mRNA (S1 nuclease protection): 5637 cells, 18 hours
Method: (§2) S1 Nuclease protection assays were carried out as described in reference 118.
(§3) To further confirm, that compounds that had been identified in a luciferase expression assay using a G-CSF specific reporter cell line would be active in inducing transcription of the endogenous G-CSF gene, cells from the parental cell line 5637 used to construct the reporter cell line were incubated with cycloheximide (25 ug/ml), DMSO (0.5%,solvent control) and low, medium and high concentrations of the compounds 542 (10, 50, 250 μM),1255 (20, 100, 500 uM), 1793(0.25, 1.2, 6.25 μM) and 1904 (20, 100 uM) for 18 hours. RNA was extracted and the concentration of G-CSF, GM-CSF and gamma-actin mRNA was determined by the S1 protection method as described in above. The positions of G-CSF GM-CSF and gamma-actin specific protected fragments are indicated (G, GM, A) at the left side of the gel (FIG. 37).

[5] = system: 5637 bladder carcinoma cells; assay: G-CSF secretion, two-antibody sandwich immunoassay; assay type: cell-based, human; conditions: 48 hours, serum-containing media
Method: Supernatants from 5637 bladder carcinoma cells incubated with chemicals registering as positives in the G-CSF promoter/luciferase high throughput assay were assayed for secreted G-CSF protein using the two-antibody sandwich immunoassay (83). The G-CSF Assay kit manufactured by Oncogene Science, Inc. was used and the manufacturer's instructions were followed.
The levels of G-CSF in the cell supernatants were determined by a sandwich-antibody assay as described in above (FIG. 42).

[6] = system: GM-CSF mRNA; assay: S1 nuclease protection, GM-CSF mRNA; assay type: cell-based, human; conditions: 5637 cells, 18 hours
Method: as §2, §3

[7] = system: G-CSF promoter; assay: G-CSF promoter/luciferase induction by known inducers, clone G1002; assay type: cell-based, human; conditions: for fold induction at 0.02 µg/mL: Homo sapiens, read-out: G-CSF promoter induction
Method: U5637 bladder carcinoma cells were transfected with pGVU150 (FIG. 21) or pGVU140 plus pTKNeo3 either by electroporation using a BRL (Gaithersburg, Md.) Cellporator electroporation device or by lipofection using BRL lipofectin and following the manufacturer's protocol. Clones were analyzed for luciferase expression and those testing positive expanded further and frozen in liquid nitrogen. Further analysis of 6 clones (G1002, G2005, G2071, G2085, G3014, G3031) included Southern blotting, reaction to known inducers, satisfactory attachment to microtiter plates and acceptable standard deviation in multiple luciferase expression assays. Clone G1002 was selected for use in the high throughput screen.
Cell clones with correctly integrated promoter/reporter constructs were analyzed for correct reaction to known transcriptional inducers. […] Both TNF-alpha and PMA induction levels of clone G1002 were influenced by the presence or absence of epidermal growth factor (EGF). […] The 9.3 fold induction by PMA in the absence of EGF was reduced to 5.6 fold by including EGF in the serum-free incubation mixture. Similar differences were observed, when EGF was substituted by 10% fetal calf serum.

[8] = system: GM-CSF promoter; assay: GM-CSF promoter/luciferase induction by known inducers, GM1073, GM1088, GM1105; assay type: cell-based, human
Method: 6 clones generated by electroporation of U5637 cells with pGMLL103 NEO3 (FIG. 26) were subjected to further analysis as described above for G-CSF: --GM1073 (10 μg; circular); GM1081, GM1088 and GM1090 (5 μg; linear); and GM1098 and GM1105 (10 μg; linear). Clone GM1073 was selected for use in the high throughput screen.
(§4) Promoter induction experiments were also conducted with the GM-CSF reporter cell lines GM1073, GM1088 and GM1105, which were all shown to contain correctly inserted constructs (see above). […] Luciferase expression of clones GM1088 and GM1105 was induced by PMA 2.8 fold and 2 fold, respectively, while TNF-alpha induced both clones 2 fold. All three M-CSF clones responded to a 16-hour incubation with 2,000 units/ml Interferon-gamma by a 20-fold increase of luciferase expression from the M-CSF promoter.

[9] = in vivo; cited from earlier work
[10] = system: HMGCoA reductase; conditions: animals, high doses; cited from earlier work
[11] = cited from earlier work; for decrease in serum cholesterol levels: compared with HMGCoA reductase inhibitors like lovastatin
[12] = system: M-CSF promoter; assay: M-CSF (CSF-1) promoter/luciferase induction, M2071, M2085, M2086; assay type: cell-based, human; conditions: 2,000 units/ml, 16 hours, all three M-CSF clones
Method: Human promyelocytic leukemia HL-60 cells are known to express CSF-1 (74). They were transfected with linearized pCSF1-102 (FIG. 21) and linearized PTKneo3 using electroporation as described above. Three neomycin resistant clones were generated: --M2071, M2085 and M2086. All three responded to a 16 hour incubation with 2000 units/ml interferon-gamma by a 20-fold increase of luciferase expression. M2086 was selected for use in the high throughput screen. The WI-38 human fibroblast cell line is also capable of producing CSF-1. Stable transfectants are also prepared from these for screening in a different cellular background. There is evidence for tissue-specific modulation of CSF-1 gene expression, and since the major source of the CSF-1 which stimulates the growth of macrophages at atherosclerotic plaques is unknown, screening with more than one cell line may be useful.
as §4

[13] = G1002, 7 hours, serum-free, absence of EGF

## CN(C)c1ccc(C(=C2C=CC(=[N+](C)C)C=C2)c2ccc([N+](C)(C)C)cc2)cc1 [#670]
[1]
  effect on endogenous G-CSF mRNA (Northern blot): increased G-CSF mRNA production; also recorded: stimulated production of G-CSF mRNA
[2]
  activation of the G-CSF promoter (dose response): specifically activated the G-CSF promoter
  EC50: 5 to 70 µM
[3]
  effect on actin mRNA (Northern blot): not of actin mRNA

## Clc1cc(Cl)cc(Br)c1 [#1255]
[1]
  effect on endogenous G-CSF mRNA (Northern blot): increased G-CSF mRNA production; also recorded: stimulated production of G-CSF mRNA
[3]
  effect on actin mRNA (Northern blot): not of actin mRNA
[4]
  amount of G-CSF mRNA (S1 nuclease protection): increased mRNA production

## CN(C)c1ccc(C(=C2C=CC(=[N+](C)C)C=C2)c2ccc(N(C)C)cc2)cc1 [#1780]
[2]; 48 independent luciferase assays, same day
  scored as positive in repeat assays (G-CSF): scored as positives in every single one of these assays
[2]
  activation of the G-CSF promoter (dose response): specifically activated the G-CSF promoter
  EC50: 5 to 70 µM
[4]; method not stated at the place
  levels of endogenous G-CSF mRNA: stimulate levels of endogenous G-CSF mRNA
[5]
  G-CSF secretion: increased G-CSF secretion

## CN(C)C(=S)SCC#N [#1793]
[4]
  amount of G-CSF mRNA (S1 nuclease protection): increased mRNA production
[6]
  amount of GM-CSF mRNA (S1 nuclease protection): increased the amount of GM-CSF mRNA

## CCCCCCCCCCCCCC(=O)O[C@@H]1[C@@H](C)[C@@]2(O)[C@@H](C=C(CO)C[C@]3(O)C(=O)C(C)=C[C@@H]23)[C@@H]2C(C)(C)[C@]12OC(C)=O [PMA, phorbol-myristate-acetate, reference compound]
[7]; [13]
  G-CSF promoter induction: 9.3 fold
[7]; 7 h
  fold induction at 0.02 µg/mL: 5.6
[7]; 10.5 h
  fold induction at 0.02 µg/mL: 4.4
[8]; GM1073, serum-free media
  GM-CSF promoter induction: 7.5 fold
[8]; Homo sapiens, GM1073, 20 ng/ml, 10.5 hours, serum-containing media
  fold induction at 0.02 µg/mL: 3.4
[8]; clone GM1088
  GM-CSF promoter induction: 2.8 fold
[8]; clone GM1105
  GM-CSF promoter induction: 2 fold
[2]; absence of EGF
  G-CSF promoter induction: 34.6 fold
[2]; presence of EGF
  G-CSF promoter induction: 24.6 fold

## CC[C@H](C)C(=O)O[C@H]1C[C@@H](C)C=C2C=C[C@H](C)[C@H](CC[C@@H]3C[C@@H](O)CC(=O)O3)[C@H]21 [lovastatin]
[9]
  most frequently reported side effects: Gastrointestinal disturbances, including flatulence, diarrhea, constipation and nausea

## CC[C@H](C)C(=O)O[C@H]1C[C@@H](C)C=C2C=C[C@H](C)[C@H](CC[C@@H]3C[C@@H](O)CC(=O)O3)[C@H]21 [mevinolin]
[10]
  HMGCoA reductase levels: increased levels of HMGCoA reductase

## GM-CSF: colony-stimulating factor GM-CSF
[11]
  decrease in serum cholesterol levels: profound decreases in serum cholesterol levels
[11]; in vivo
  average decrease in serum cholesterol: 37%

## Interferon-gamma: a proteinaceous positive regulator, interferon-gamma
[1]
  effect on endogenous G-CSF mRNA (Northern blot): increased G-CSF mRNA production
[12]
  increase of luciferase expression from the M-CSF promoter: 20 fold

## TNF-alpha
[7]; G1002, 8.3 ng/ml, 10.5 hours, serum-containing media
  G-CSF promoter induction: 2 fold
[7]; G1002, 7 hours, serum-free defined media with 20 ng/ml EGF
  G-CSF promoter induction: 3 fold
[7]; [13]
  G-CSF promoter induction: 4 fold
[8]; clone GM1088
  GM-CSF promoter induction: 2 fold
[8]; clone GM1105
  GM-CSF promoter induction: 2 fold
[2]; absence of EGF
  G-CSF promoter induction: 2.1 fold
[2]; presence of EGF
  G-CSF promoter induction: 2.8 fold
[5]
  G-CSF secretion: increased G-CSF secretion

B1: CSF-1: colony-stimulating factor-1 (protein, UniProt P09603 33-554, looked up)
Macrophage colony-stimulating …: EEVSEYCSHMIGSGHLQSLQRLIDSQMETSCQITFEFVDQEQLKDPVCYLKKAFLLVQDIMEDTMRFRDNTPNAIAIVQLQELSLRLKSCFTKDYEEHDKACVRTFYETPLQLLEKVKNVFNETKNLLDKDWNIFSKNCNNSFAECSSQDVVTKPDCNCLYPKAIPSSDPASVSPHQPLAPSMAPVAGLTWEDSEGTEGSSLLPGEQPLHTVDPGSAKQRPPRSTCQSFEPPETPVVKDSTIGGSPQPRPSVGAFNPGMEDILDSAMGTNWVPEEASGEASEIPVPQGTELSPSRPGGGSMQTEPARPSNFLSASSPLPASAKGQQPADVTGTALPRVGPVRPTGQDWNHTPQKTDHPSALLRDPPEPGSPRISSLRPQGLSNPSTLSAQPQLSRSHSSGSVLPLGELEGRRSTRDRRSPAEPEGGPASEGAARPLPRFNSVPLTDTGHERQSEGSFSPQLQESVFHLLVPSVILVLLAVGGLLFYRWRRRSHQEPQRADSPLEQPEGSPLTQDDRQVELPV
[11]
  decrease in serum cholesterol levels: profound decreases in serum cholesterol levels
